Measured values reported in patent US20230255953A1, “USE OF ROLUPERIDONE IN PREVENTING RELAPSE IN SCHIZOPHRENIA PATIENTS” (Minerva Neurosciences, Inc., priority 2022, published 2023).

Test system: patients with negative symptoms of schizophrenia
Assay: Study #1 (MIN-101C03): Personal and Social Performance (PSP)
Assay type: in vivo, human
Conditions: Week 12 DB; for Change from Baseline LS Mean: PSP Disturbing & Aggressive Behavior / Change from Baseline LS Mean: PSP Personal and Social Relationships / Change from Baseline LS Mean: PSP Self-care / Change from Baseline LS Mean: PSP Socially Useful Activities / Change from Baseline LS Mean: PSP Total Score (mapped from the 4 domains) / Effect Size vs Placebo: PSP Disturbing & Aggressive Behavior / Effect Size vs Placebo: PSP Personal and Social Relationships / Effect Size vs Placebo: PSP Self-care / Effect Size vs Placebo: PSP Socially Useful Activities / Effect Size vs Placebo: PSP Total Score (mapped from the 4 domains): ITT
Excerpt: The PSP is a validated clinician-rated scale intended to reflect real-life situations that measures personal and social functioning in 4 domains: (a) socially useful activities, (b) personal and social relationships, (c) self-care, and (d) disturbing and aggressive behaviors. The score is based on the assessment of a patient's performance in the 4 domains. The PSP Total score is a single measurement of functioning ranging from 1 to 100, where a higher score represents better functioning. A score of 91 to 100 indicates excellent functioning in all 4 main areas; the patient is held in high consideration for their good qualities, copes adequately with life problems, and is involved in a wide range of interests and activities. A score of 1 to 10 indicates a lack of autonomy in basic functioning with extreme behaviors but without survival risk (score 6 to 10) or with survival risk (score 1 to 5). […] Review of the relevant scientific literature and the analysis of the psychometric properties of the 4 domains that result in the generation of the PSP Total score were supportive of the appropriateness and cross-cultural applicability of the use of the PSP in drug development for the indication of negative symptoms of schizophrenia The PSP was assessed at the timepoints described in Table 6. The changes from Baseline in the PSP Total score and individual domain scores after 12 weeks of treatment were exploratory efficacy endpoints in Study MIN-101C03, and the Total score was the key secondary efficacy endpoint and the PSP domain scores were exploratory endpoints in Study MIN-101C07.
Phase 2b Study #1 (also referred to herein as “MIN-101C03”) was a Phase 2b, double-blind (“DB”), placebo-controlled, randomized, multicenter 12-week study to evaluate the efficacy, safety, and tolerability of Roluperidone in patients ≥18 years to ≤60 years with negative symptoms of schizophrenia, followed by a 24-week open-label (“OL”) extension. The primary objective of the study was to evaluate the efficacy of Roluperidone compared to placebo in improving the negative symptoms of schizophrenia as measured by the change from Baseline in the PANSS negative factor score of the PSM (“PANSS PSM”) over 12 weeks of treatment.
The study consisted of a pretreatment screening period of up to 28 days (including washout), a 12-week, DB, placebo-controlled period, and a 24-week OL period. Eligible patients (who were symptomatically stable for at least 3 months and had scores of at least 20 on the PANSS negative subscale score) were randomized in a 1:1:1 ratio to receive oral Roluperidone (a modified-release, “MR”, formulation) 32 mg QD, Roluperidone 64 mg QD, or placebo for 12 weeks. […] During the 24-week, OL treatment extension period, patients who were initially randomized to Roluperidone 32 mg or 64 mg continued on the same dose, while patients who were initially randomized to placebo crossed over to Roluperidone 32 mg or 64 mg in a 1:1 ratio.

1H-Isoindol-1-one,2-[ [1-[2-(4-fluorophenyl)-2-oxoethyl]-4-piperidinyl]methyl]-2,3-dihydro-, hydrochloride, hydrate (1:1:2) [Roluperidone]
Effect Size vs Placebo: 7-Point improvement in PSP Total Score responders (32 mg QD): 0.05 | Effect Size vs Placebo: 10-Point improvement in PSP Total Score responders (32 mg QD): 0.05 | Number of Patients with 7-Point improvement in PSP Total Score at Week 12 (32 mg QD): 17/50 | Number of Patients with 10-Point improvement in PSP Total Score at Week 12 (32 mg QD): 17/50 | Patients with 7-Point improvement in PSP Total Score at Week 12 (%) (32 mg QD): (34%) | Patients with 10-Point improvement in PSP Total Score at Week 12 (%) (32 mg QD): (34%) | Change from Baseline LS Mean: PSP Disturbing & Aggressive Behavior (32 mg QD): −0.15 | Change from Baseline LS Mean: PSP Personal and Social Relationships (32 mg QD): −0.22 | Change from Baseline LS Mean: PSP Self-care (32 mg QD): −0.37 | Change from Baseline LS Mean: PSP Socially Useful Activities (32 mg QD): −0.41 | Change from Baseline LS Mean: PSP Total Score (mapped from the 4 domains) (32 mg QD): 1.77 | Effect Size vs Placebo: PSP Disturbing & Aggressive Behavior (32 mg QD): 0.36 | Effect Size vs Placebo: PSP Personal and Social Relationships (32 mg QD): 0.02 | Effect Size vs Placebo: PSP Self-care (32 mg QD): 0.27 | Effect Size vs Placebo: PSP Socially Useful Activities (32 mg QD): 0.14 | Effect Size vs Placebo: PSP Total Score (mapped from the 4 domains) (32 mg QD): −0.01 | Effect Size vs Placebo: 7-Point improvement in PSP Total Score responders (64 mg QD): 0.17 | Effect Size vs Placebo: 10-Point improvement in PSP Total Score responders (64 mg QD): 0.17 | Number of Patients with 7-Point improvement in PSP Total Score at Week 12 (64 mg QD): 26/54 | Number of Patients with 10-Point improvement in PSP Total Score at Week 12 (64 mg QD): 26/54 | Change from Baseline LS Mean: PSP Disturbing & Aggressive Behavior (64 mg QD): −0.24 | Change from Baseline LS Mean: PSP Personal and Social Relationships (64 mg QD): −0.56 | Change from Baseline LS Mean: PSP Self-care (64 mg QD): −0.48 | Change from Baseline LS Mean: PSP Socially Useful Activities (64 mg QD): −0.57 | Change from Baseline LS Mean: PSP Total Score (mapped from the 4 domains) (64 mg QD): 8.52 | Effect Size vs Placebo: PSP Disturbing & Aggressive Behavior (64 mg QD): 0.51 | Effect Size vs Placebo: PSP Personal and Social Relationships (64 mg QD): 0.53 | Effect Size vs Placebo: PSP Self-care (64 mg QD): 0.46 | Effect Size vs Placebo: PSP Socially Useful Activities (64 mg QD): 0.38 | Effect Size vs Placebo: PSP Total Score (mapped from the 4 domains) (64 mg QD): 0.56
